From patent US20050115197A1, “Antimicrobial barrier coatings and methods of use” (priority 2003, published 2005)

Test system: Aspergillus niger (ATCC 6275) and Penicillium pinophilum (ATCC 9644) mixture (interior films); Aureobasidium pullulans (ATCC 9348) (exterior films)
Assay: dry-film mildew resistance test of sealer/barrier compositions on coated filter paper on malt agar
Format: cell-based
Settings: level of fungicide in the sealer/barrier composition; up to 14 days incubation
Description: The above sealer/barrier compositions were tested to determine the performance of dry-films as protective sealers in preventing the development of mildew during testing on porous cellulosic substrates. Several test samples of the composition were prepared with levels of fungicide ranging from 250 ppm to 3000 ppm. In addition, a composition was prepared without fungicide for use as a control.
Individual samples of the sealer/barrier composition were weighed out. Fungicide was added to the samples of the sealer/barrier coating compositions in a ladder series of levels (e.g., 250, 500, 750 1000 ppm, etc.) and thoroughly mixed. The test porous cellulosic substrates consisting of Whatman No. 30 filter paper were first brush coated each with two (2) coats of test composition, and allowed to dry in a protected location. Duplicate two inch squares were then cut from the coated filter paper specimens and placed on the surface on malt agar petri plates.
Test inoculums consisting of aqueous spore suspensions at a concentrations of ˜10^5 spores were prepared in sterile water. Those films (compositions) which were intended for use in interior application were inoculated with a mixture of Aspergillus niger (ATCC 6275) and Penicillium pinophilum (ATCC 9644). Films intended for exterior application were inoculated with Aureobasidium pullulans (ATCC 9348). […]

c1ccc2[nH]c(-c3cscn3)nc2c1 [biocide, 2-(4-thiazoyl)benzimidazole]
biocide level capable of preventing mold development on the substrate: ≤ 250 ppm
